“And” between values parts separate entries of the source, which are not always exact repeats. Equal values may be shown once. Inconclusive results and toxic doses are left out. How the source made its calls: active means survival T/C of 150% or more; inactive means T/C below 125% in these data.
System: BDF1 mice, P388 leukemia ip, median survival T/C
Assay: NCI In Vivo Anticancer Drug Screen. Data for tumor model P388 Leukemia (intraperitoneal) in B6D2F1 (BDF1) mice
Conditions: endpoint: median survival time, higher = longer survival
Summary of the method: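 Vehicle-dosed animals serve as the reference; survival of compound-dosed, tumour-implanted mice is divided by it.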

[1] = dose: 100.0 mg/kg/injection, schedule: Q01DX001 (ip), vehicle: Klucel (hydroxypropylcellulose) (HPC)
[2] = dose: 25.0 mg/kg/injection, schedule: Q04DX003 (ip), vehicle: saline with Tween-80
[3] = dose: 50.0 mg/kg/injection, schedule: Q01DX009 (ip), vehicle: saline with Tween-80
[4] = dose: 200.0 mg/kg/injection, schedule: Q01DX009 (ip), vehicle: saline with Tween-80
[5] = dose: 100.0 mg/kg/injection, schedule: Q04DX003 (ip), vehicle: saline with Tween-80
[6] = dose: 50.0 mg/kg/injection, schedule: Q04DX003 (ip), vehicle: saline with Tween-80

Measured: T/C

Cn1cc(/C=C/C(N)=O)c2nccnc21
inactive: dose: 1.56 mg/kg/injection, schedule: Q01DX009 (ip), vehicle: water 114 % of control | dose: 3.12 mg/kg/injection, schedule: Q01DX009 (ip), vehicle: water 100 % of control | dose: 3.12 mg/kg/injection, schedule: Q04DX003 (ip), vehicle: water 115 % of control | dose: 6.25 mg/kg/injection, schedule: Q01DX009 (ip), vehicle: water 95 % of control | dose: 6.25 mg/kg/injection, schedule: Q04DX003 (ip), vehicle: water 106 % of control | dose: 12.5 mg/kg/injection, schedule: Q01DX009 (ip), vehicle: water 96 % of control | dose: 12.5 mg/kg/injection, schedule: Q04DX003 (ip), vehicle: water 98 % of control | dose: 25.0 mg/kg/injection, schedule: Q01DX009 (ip), vehicle: water 100 % of control and 102 % of control | dose: 25.0 mg/kg/injection, schedule: Q04DX003 (ip), vehicle: water 98 % of control | dose: 50.0 mg/kg/injection, schedule: Q01DX009 (ip), vehicle: water 86 % of control | dose: 50.0 mg/kg/injection, schedule: Q04DX003 (ip), vehicle: water 102 % of control

Cc1[nH]c2cc(Br)ccc2c1/C=N/NC(N)=S
inactive: dose: 25.0 mg/kg/injection, schedule: Q01DX001 (ip), vehicle: Klucel (hydroxypropylcellulose) (HPC) 107 % of control | dose: 50.0 mg/kg/injection, schedule: Q01DX001 (ip), vehicle: Klucel (hydroxypropylcellulose) (HPC) 102 % of control | [1] 103 % of control

COc1ccc2[nH]c3c(c2c1)CSc1ccccc1-3
inactive: [1] 91 % of control | dose: 200.0 mg/kg/injection, schedule: Q01DX001 (ip), vehicle: Klucel (hydroxypropylcellulose) (HPC) 108 % of control | dose: 400.0 mg/kg/injection, schedule: Q01DX001 (ip), vehicle: Klucel (hydroxypropylcellulose) (HPC) 108 % of control

CCCCCCCCCCCCCCCC[N+](C)(C)c1ccccc1
inactive: dose: 1.56 mg/kg/injection, schedule: Q04DX003 (ip), vehicle: saline with Tween-80 110 % of control | dose: 3.13 mg/kg/injection, schedule: Q04DX003 (ip), vehicle: saline with Tween-80 115 % of control | [2] 108 % of control

C1=CN(c2ccc(/C=C\c3ccnc4ccccc34)cc2)C=CN1c1ccc(/C=C\c2ccnc3ccccc23)cc1
inactive: [3] 119 % of control

NC(CS(=O)(=O)c1ccc(N(CCCl)CCCl)cc1)C(=O)O (stereo unspecified)
inactive: dose: 100.0 mg/kg/injection, schedule: Q01DX001 (ip), vehicle: saline with Tween-80 108 % of control | dose: 200.0 mg/kg/injection, schedule: Q01DX001 (ip), vehicle: saline with Tween-80 101 % of control | dose: 400.0 mg/kg/injection, schedule: Q01DX001 (ip), vehicle: saline with Tween-80 90 % of control

CCCCCCCCC(O)CCC (stereo unspecified)
inactive: dose: 100.0 mg/kg/injection, schedule: Q01DX009 (ip), vehicle: saline 100 % of control | dose: 200.0 mg/kg/injection, schedule: Q01DX009 (ip), vehicle: saline 109 % of control

COC(=O)C(Br)c1cccc(OC)c1 (stereo unspecified)
inactive: dose: 58.5 mg/kg/injection, schedule: Q01DX009 (ip), vehicle: saline with Tween-80 100 % of control | dose: 88.0 mg/kg/injection, schedule: Q01DX009 (ip), vehicle: saline with Tween-80 100 % of control | dose: 132.0 mg/kg/injection, schedule: Q01DX009 (ip), vehicle: saline with Tween-80 90 % of control | [4] 100 % of control and 120 % of control

O=C(OCCCCOC(=O)c1cccc([N+](=O)[O-])c1)c1cccc([N+](=O)[O-])c1
inactive: dose: 3.0 mg/kg/injection, schedule: Q04DX003 (ip), vehicle: saline with Tween-80 115 % of control | dose: 6.0 mg/kg/injection, schedule: Q04DX003 (ip), vehicle: saline with Tween-80 110 % of control | dose: 12.0 mg/kg/injection, schedule: Q04DX003 (ip), vehicle: saline with Tween-80 120 % of control

O=C(O)CNC(=O)C(Br)Cc1ccccc1 (stereo unspecified)
inactive: [5] 90 % of control | dose: 200.0 mg/kg/injection, schedule: Q04DX003 (ip), vehicle: saline with Tween-80 100 % of control | dose: 400.0 mg/kg/injection, schedule: Q04DX003 (ip), vehicle: saline with Tween-80 100 % of control

[N-]=[N+]=NC(=O)C1(Br)CCC2c3ccccc3C([N+](=O)[O-])(C1)c1ccccc12 (stereo unspecified)
inactive: dose: 100.0 mg/kg/injection, schedule: Q04DX003 (ip), vehicle: saline 95 % of control | dose: 200.0 mg/kg/injection, schedule: Q04DX003 (ip), vehicle: saline 100 % of control | dose: 400.0 mg/kg/injection, schedule: Q04DX003 (ip), vehicle: saline 109 % of control

CC(=O)N(C)C=C1C(=O)N(C)C(=O)N(C)C1=O
inactive: [3] 102 % of control | dose: 100.0 mg/kg/injection, schedule: Q01DX009 (ip), vehicle: saline with Tween-80 111 % of control | [4] 92 % of control

Nc1ccc(/C=C\c2nccc3ccccc23)cc1
inactive: dose: 0.39 mg/kg/injection, schedule: Q01DX009 (ip), vehicle: saline with Tween-80 114 % of control | dose: 0.78 mg/kg/injection, schedule: Q01DX009 (ip), vehicle: saline with Tween-80 107 % of control | dose: 0.78 mg/kg/injection, schedule: Q01DX009 (ip), vehicle: saline 123 % of control | dose: 1.56 mg/kg/injection, schedule: Q01DX009 (ip), vehicle: saline 123 % of control | dose: 3.13 mg/kg/injection, schedule: Q01DX009 (ip), vehicle: saline with Tween-80 89 % of control | dose: 3.13 mg/kg/injection, schedule: Q01DX009 (ip), vehicle: saline 113 % of control

O=C(O)c1ccc(NS(=O)(=O)Cc2ccccc2)cc1
inactive: dose: 100.0 mg/kg/injection, schedule: Q01DX009 (ip), vehicle: Klucel (hydroxypropylcellulose) (HPC) 123 % of control | dose: 200.0 mg/kg/injection, schedule: Q01DX009 (ip), vehicle: Klucel (hydroxypropylcellulose) (HPC) 123 % of control | dose: 400.0 mg/kg/injection, schedule: Q01DX009 (ip), vehicle: Klucel (hydroxypropylcellulose) (HPC) 123 % of control

OCC(O)C(O)C(O)CO (stereo unspecified)
inactive: dose: 100.0 mg/kg/injection, schedule: Q01DX010 (ip), vehicle: saline 100 % of control | dose: 400.0 mg/kg/injection, schedule: Q01DX010 (ip), vehicle: saline 100 % of control

O=c1[nH]c(=O)n(C2CC(O)C(CO)O2)cc1I (stereo unspecified)
inactive: dose: 10.0 mg/kg/injection, schedule: Q01DX009 (ip), vehicle: saline with Tween-80 109 % of control | dose: 20.0 mg/kg/injection, schedule: Q01DX009 (ip), vehicle: saline with Tween-80 107 % of control | dose: 40.0 mg/kg/injection, schedule: Q01DX009 (ip), vehicle: saline with Tween-80 92 % of control and 109 % of control | dose: 80.0 mg/kg/injection, schedule: Q01DX009 (ip), vehicle: saline with Tween-80 106 % of control and 118 % of control | dose: 320.0 mg/kg/injection, schedule: Q01DX009 (ip), vehicle: saline with Tween-80 90 % of control

C[N+](C)(C)Cc1ccccc1
inactive: [2] 95 % of control | [6] 112 % of control

COc1cc(C=Nc2cc(Br)cc(Br)c2)ccc1N(CCCl)CCCl
active: dose: 18.75 mg/kg/injection, schedule: Q04DX003 (ip), vehicle: other 204 % of control | dose: 22.0 mg/kg/injection, schedule: Q04DX003 (ip), vehicle: saline with Tween-80 200 % of control | dose: 33.0 mg/kg/injection, schedule: Q04DX003 (ip), vehicle: saline with Tween-80 222 % of control | dose: 37.5 mg/kg/injection, schedule: Q04DX003 (ip), vehicle: other 250 % of control | [6] 218 % of control | dose: 60.0 mg/kg/injection, schedule: Q04DX003 (ip), vehicle: saline with Tween-80 272 % of control | dose: 75.0 mg/kg/injection, schedule: Q04DX003 (ip), vehicle: other 250 % of control | dose: 100.0 mg/kg/injection, schedule: Q04DX003 (ip), vehicle: saline sonified 154 % of control | dose: 200.0 mg/kg/injection, schedule: Q04DX003 (ip), vehicle: saline sonified 263 % of control
inactive: dose: 400.0 mg/kg/injection, schedule: Q04DX003 (ip), vehicle: saline sonified 118 % of control

CCOC(=O)C(NC(=O)C(Cc1ccc(N(CCCl)CCCl)cc1)NC(C)=O)C(C)C (stereo unspecified)
active: dose: 40.0 mg/kg/injection, schedule: Q04DX003 (ip), vehicle: other 151 % of control | dose: 66.0 mg/kg/injection, schedule: Q04DX003 (ip), vehicle: saline with Tween-80 168 % of control | [5] 186 % of control | dose: 150.0 mg/kg/injection, schedule: Q04DX003 (ip), vehicle: saline with Tween-80 245 % of control
inactive: dose: 5.0 mg/kg/injection, schedule: Q04DX003 (ip), vehicle: other 118 % of control | dose: 10.0 mg/kg/injection, schedule: Q04DX003 (ip), vehicle: other 118 % of control

— PubChem BioAssay AID328 (DTP/NCI, 2004)
